According to US6649365B1, “Indolamine derivatives for detecting peptidase activity in culture media” (Bio Merieux, priority 1998, dated 2003):

How the values were obtained:
K. pneumoniae [1] = assay: Colony colour on gelled medium of Example 3; assay type: cell-based, Klebsiella Pneumoniae; parameters: key: —: Absence of coloration; Brown = Colony colour; conditions: 37° C.
Method: (§1) L-Pro-BIA, pyroglutamyl-BIA (Pyr-BIA) or Ala-Phe-Pro-BIA is added to this medium. These various media, which are distributed into Petri dishes, are inoculated with various microorganisms: E. coli, K. pneumoniae, C. freundii, p. aeruginosa, S. agalactiae, E. faecium, S. pyogenes, S. epidermidis, C. albicans and C. tropicalis. The dishes are incubated at 37° C. for 48 hours, and the colonies formed are examined visually after incubation for 24 and 48 hours. The colour was noted.

E. coli [2] = assay: Colony colour on gelled medium of Example 3; assay type: cell-based, Escherichia coli; parameters: key: —: Absence of coloration; Brown = Colony colour; conditions: 37° C.
Method: as §1

E. faecium [3] = assay: Colony colour on gelled medium of Example 3; assay type: cell-based, Enterococcus faecium; parameters: key: —: Absence of coloration; Brown = Colony colour; conditions: 37° C.
Method: as §1

P. aeruginosa [4] = assay: Colony colour on gelled medium of Example 3; assay type: cell-based, Pseudomonas aeruginosa; parameters: key: —: Absence of coloration; Brown = Colony colour; conditions: 37° C.
Method: as §1

C. freundii [5] = assay: Colony colour on gelled medium of Example 3; assay type: cell-based, Citrobacter freundii; parameters: key: —: Absence of coloration; Brown = Colony colour; conditions: 37° C.
Method: as §1

S. agalactiae [6] = assay: Colony colour on gelled medium of Example 3; assay type: cell-based, Streptococcus agalactiae; parameters: key: —: Absence of coloration; Brown = Colony colour; conditions: 37° C.
Method: as §1

S. pyogenes [7] = assay: Colony colour on gelled medium of Example 3; assay type: cell-based, Streptococcus pyogenes; parameters: key: —: Absence of coloration; Brown = Colony colour; conditions: 37° C.
Method: as §1

Pseudomonas aeruginosa = assay: Colony colour or fluorescence on gelled medium of Example 1; assay type: cell-based; conditions: medium of Example 1, substrate 200 mg/l, 37° C., 24 or 48 hours, ambient light and UV 365 nm
Method: (§2) L-Pro-BIA, or 7-L-prolylamino-4-methylcoumarin (L-Pro-AMC) is added to this medium at a concentration of 200 mg/l. The various media obtained, which are distributed in Petri dishes, are inoculated with microorganisms. The dishes were incubated at 37° C. for 48 hours. The colonies formed were examined visually in ambient light and under a UV lamp (wavelength=365 nm) after incubation for 24 and 48 hours. The colour or the presence of fluorescence was noted. The microorganisms studied were: Pseudomonas aeruginosa and Candida albicans.

Enterococcus faecium = assay: as above; assay type: cell-based; conditions: medium of Example 1, substrate 200 mg/L, 24 or 48 hours
[8] = tested on: Staphylococcus epidermidis; assay: as above; assay type: cell-based; conditions: medium of Example 1, substrate 200 mg/L, 24 or 48 hours
Citrobacter freundii = assay: as above; assay type: cell-based; conditions: medium of Example 1, substrate 200 mg/L, 24 or 48 hours
Streptococcus agalactiae = assay: as above; assay type: cell-based; conditions: medium of Example 1, substrate 200 mg/L, 24 or 48 hours
Escherichia coli = assay: as above; assay type: cell-based; conditions: medium of Example 1, substrate 200 mg/L, 24 or 48 hours
Klebsiella Pneumoniae = assay: as above; assay type: cell-based; conditions: medium of Example 1, substrate 200 mg/L, 24 or 48 hours
Streptococcus pyogenes = assay: as above; assay type: cell-based; conditions: medium of Example 1, substrate 200 mg/L, 24 or 48 hours
[9] = tested on: genera Escherichia, Klebsiella, Citrobacter, Pseudomonas, Enterococcus, Staphylococcus and Streptococcus; assay: Preliminary tests in the medium described in Example 1; assay type: cell-based; conditions: for leucine-aminopeptidase or proline-aminopeptidase activity demonstrated: substrate added to the medium of Example 1; for revelation of a peptidase activity: medium of Example 1 with addition of the reagents proposed by Lojda and Havrankova (tetrazolium salt and phenazine methosulphate)
Method: In the course of the studies which lead to the present invention, an investigation was, carried out as to whether it was possible to use this enzymatic substrate for detecting microorganisms cultured, in particular, on gelled media. During preliminary tests, L-Leu-BIA or L-Pro-BIA was added to a medium currently used to search for osidases, which is described in Example 1 below.
Similarly, in this medium, with osidase substrates (5-bromo-4-chloro-3-indolyl-β-D-galactoside and 6-chloro-3-indolyl-β-D-glucuronide), the β-galactos-idase and β-glucuronidase activities of the microorganisms can be detected.

E. faecium [10] = assay: Coloration or fluorescence in phosphate buffer, microtitration plates (Example 2); assay type: cell-based, Enterococcus faecium; conditions: 0.1 M phosphate buffer pH 7.3, 24 to 48 hours
K. pneumoniae [11] = assay: as above; assay type: cell-based, Klebsiella Pneumoniae; conditions: 0.1 M phosphate buffer pH 7.3, 24 to 48 hours
S. agalactiae [12] = assay: as above; assay type: cell-based, Streptococcus agalactiae; conditions: 0.1 M phosphate buffer pH 7.3, 24 to 48 hours
E. coli [13] = assay: as above; assay type: cell-based, Escherichia coli; conditions: 0.1 M phosphate buffer pH 7.3, 24 to 48 hours
S. pyogenes [14] = assay: as above; assay type: cell-based, Streptococcus pyogenes; conditions: 0.1 M phosphate buffer pH 7.3, 24 to 48 hours
C. freundii [15] = assay: as above; assay type: cell-based, Citrobacter freundii; conditions: 0.1 M phosphate buffer pH 7.3, 24 to 48 hours
P. aeruginosa [16] = assay: as above; assay type: cell-based, Pseudomonas aeruginosa; conditions: 0.1 M phosphate buffer pH 7.3, substrate 400 mg/L, 37° C., 24 to 48 hours
Method: (§3) L-Pro-BIA or L-Pro-AMC is added, at the concentration of 400 mg/L, to a 0.1 M phosphate buffer, pH 7.3, at 25° C. The medium obtained is distributed into the wells of microtitration plates which are inoculated with suspensions of P. aeruginosa or of C. albicans. The plates are incubated for 24 hours at 37° C. The wells are examined visually in ambient light and under a UV lamp, after incubation for 24 to 48 hours.

Candida albicans = assay: Colony colour or fluorescence on gelled medium of Example 1; assay type: cell-based; conditions: medium of Example 1, substrate 200 mg/l, 37° C., 24 or 48 hours, ambient light and UV 365 nm
Method: as §2

C. albicans [17] = assay: Coloration or fluorescence in phosphate buffer, microtitration plates (Example 2); assay type: cell-based, Candida albicans; conditions: 0.1 M phosphate buffer pH 7.3, substrate 400 mg/L, 37° C., 24 to 48 hours
Method: as §3

C. tropicalis = assay: Colony colour on gelled medium of Example 3; assay type: cell-based; parameters: key: —: Absence of coloration; Brown = Colony colour; conditions: 37° C.
Method: as §1

C. albicans [18] = assay: Colony colour on gelled medium of Example 3; assay type: cell-based, Candida albicans; parameters: key: —: Absence of coloration; Brown = Colony colour; conditions: 37° C.
Method: as §1

S. epidermidis = assay: Colony colour on gelled medium of Example 3; assay type: cell-based, Staphylococcus epidermidis; parameters: key: —: Absence of coloration; Brown = Colony colour; conditions: 37° C.
Method: as §1

CC(N)C(=O)NC(Cc1ccccc1)C(=O)N1CCCC1C(=O)Nc1c[nH]c2ccc(Br)cc12 (stereo not drawn) [Ala-Phe-Pro-BIA]
Colony colour (K. pneumoniae [1]; 24 H): Brown
Colony colour (K. pneumoniae [1]; 48 H): Brown
Colony colour (E. coli [2]; 24 H): Brown^2
Colony colour (E. coli [2]; 48 H): Brown
Colony colour (E. faecium [3]; 24 H): —
Colony colour (E. faecium [3]; 48 H): —
Colony colour (P. aeruginosa [4]; 24 H): Brown
Colony colour (P. aeruginosa [4]; 48 H): Brown
Colony colour (C. freundii [5]; 24 H): Brown
Colony colour (C. freundii [5]; 48 H): Brown
Colony colour (S. agalactiae [6]; 24 H): Brown
Colony colour (S. agalactiae [6]; 48 H): Brown
Colony colour (S. pyogenes [7]; 24 H): Brown
Colony colour (S. pyogenes [7]; 48 H): Brown

C[C@H](N)C(=O)Nc1c[nH]c2ccc(Br)cc12 [L-Ala-BIA]
peptidase activity revealed by colour or fluorescence of the colonies (Pseudomonas aeruginosa): no coloration
peptidase activity revealed by colour or fluorescence of the colonies (Enterococcus faecium): no coloration
peptidase activity revealed by colour or fluorescence of the colonies [8]: no coloration
peptidase activity revealed by colour or fluorescence of the colonies (Citrobacter freundii): no coloration
peptidase activity revealed by colour or fluorescence of the colonies (Streptococcus agalactiae): no coloration
peptidase activity revealed by colour or fluorescence of the colonies (Escherichia coli): no coloration
peptidase activity revealed by colour or fluorescence of the colonies (Klebsiella Pneumoniae): no coloration
peptidase activity revealed by colour or fluorescence of the colonies (Streptococcus pyogenes): no coloration

Cc1cc(=O)oc2cc(NC(=O)[C@@H](N)CC(C)C)ccc12 [L-Leu-AMC, 7-L-leucylamino-4-methylcoumarin]
leucine-aminopeptidase or proline-aminopeptidase activity demonstrated [9]: a fluorescence
peptidase activity revealed by coloration or fluorescence of the wells (E. faecium [10]): detected, by emission of fluorescence
peptidase activity revealed by coloration or fluorescence of the wells (K. pneumoniae [11]): detected, by emission of fluorescence
peptidase activity revealed by coloration or fluorescence of the wells (S. agalactiae [12]): detected, by emission of fluorescence
peptidase activity revealed by coloration or fluorescence of the wells (E. coli [13]): detected, by emission of fluorescence
peptidase activity revealed by coloration or fluorescence of the wells (S. pyogenes [14]): detected, by emission of fluorescence
peptidase activity revealed by coloration or fluorescence of the wells (C. freundii [15]): detected, by emission of fluorescence
peptidase activity revealed by coloration or fluorescence of the wells (P. aeruginosa [16]): detected, by emission of fluorescence

CC(C)C[C@H](N)C(=O)Nc1c[nH]c2ccc(Br)cc12 [L-Leu-BIA, 3-L-leucylamino-5-bromoindole]
revelation of a peptidase activity [9]: without allowing the revelation of a peptidase activity
leucine-aminopeptidase or proline-aminopeptidase activity demonstrated [9]: not possible to demonstrate
peptidase activity revealed by colour or fluorescence of the colonies (Pseudomonas aeruginosa): no coloration
peptidase activity revealed by colour or fluorescence of the colonies (Enterococcus faecium): no coloration
peptidase activity revealed by colour or fluorescence of the colonies [8]: no coloration
peptidase activity revealed by coloration or fluorescence of the wells (E. faecium [10]): did not make it possible to detect
peptidase activity revealed by coloration or fluorescence of the wells (K. pneumoniae [11]): did not make it possible to detect
peptidase activity revealed by colour or fluorescence of the colonies (Citrobacter freundii): no coloration
peptidase activity revealed by colour or fluorescence of the colonies (Streptococcus agalactiae): no coloration
peptidase activity revealed by colour or fluorescence of the colonies (Escherichia coli): no coloration
peptidase activity revealed by coloration or fluorescence of the wells (S. agalactiae [12]): did not make it possible to detect
peptidase activity revealed by coloration or fluorescence of the wells (E. coli [13]): did not make it possible to detect
peptidase activity revealed by coloration or fluorescence of the wells (S. pyogenes [14]): did not make it possible to detect
peptidase activity revealed by colour or fluorescence of the colonies (Klebsiella Pneumoniae): no coloration
peptidase activity revealed by coloration or fluorescence of the wells (C. freundii [15]): did not make it possible to detect
peptidase activity revealed by colour or fluorescence of the colonies (Streptococcus pyogenes): no coloration
peptidase activity revealed by coloration or fluorescence of the wells (P. aeruginosa [16]): did not make it possible to detect

Cc1cc(=O)oc2cc(NC(=O)[C@@H]3CCCN3)ccc12 [L-Pro-AMC, 7-L-prolylamino-4-methylcoumarin]
leucine-aminopeptidase or proline-aminopeptidase activity demonstrated [9]: a fluorescence
peptidase activity revealed by colour or fluorescence of the colonies (Candida albicans): emission of a fluorescence
peptidase activity revealed by colour or fluorescence of the colonies (Pseudomonas aeruginosa): emission of a fluorescence
peptidase activity revealed by coloration or fluorescence of the wells (C. albicans [17]): possible to reveal an L-Pro-aminopeptidase activity
peptidase activity revealed by coloration or fluorescence of the wells (P. aeruginosa [16]): possible to reveal an L-Pro-aminopeptidase activity

O=C(Nc1c[nH]c2ccc(Br)cc12)[C@@H]1CCCN1 [L-Pro-BIA]
revelation of a peptidase activity [9]: without allowing the revelation of a peptidase activity
leucine-aminopeptidase or proline-aminopeptidase activity demonstrated [9]: not possible to demonstrate
Colony colour (C. tropicalis; 24 H): —
Colony colour (C. tropicalis; 48 H): —
Colony colour (K. pneumoniae [1]; 24 H): —
Colony colour (K. pneumoniae [1]; 48 H): —
peptidase activity revealed by colour or fluorescence of the colonies (Candida albicans): no coloration
peptidase activity revealed by colour or fluorescence of the colonies (Pseudomonas aeruginosa): no coloration
Colony colour (E. coli [2]; 24 H): —^1
Colony colour (E. coli [2]; 48 H): —
Colony colour (P. aeruginosa [4]; 24 H): Brown
Colony colour (P. aeruginosa [4]; 48 H): Brown
Colony colour (C. albicans [18]; 24 H): Brown
Colony colour (C. albicans [18]; 48 H): Brown
peptidase activity revealed by coloration or fluorescence of the wells (C. albicans [17]): No coloration
Colony colour (C. freundii [5]; 24 H): —
Colony colour (C. freundii [5]; 48 H): —
peptidase activity revealed by coloration or fluorescence of the wells (P. aeruginosa [16]): No coloration

O=C1CCC(C(=O)Nc2c[nH]c3ccc(Br)cc23)N1 (centres unmarked) [Pyr-BIA, pyroglutamyl-BIA]
Colony colour (K. pneumoniae [1]; 24 H): —
Colony colour (K. pneumoniae [1]; 48 H): Brown
Colony colour (E. coli [2]; 24 H): —
Colony colour (E. coli [2]; 48 H): —
Colony colour (S. epidermidis; 24 H): —
Colony colour (S. epidermidis; 48 H): —
Colony colour (E. faecium [3]; 24 H): Brown
Colony colour (E. faecium [3]; 48 H): Brown
Colony colour (P. aeruginosa [4]; 24 H): Brown
Colony colour (P. aeruginosa [4]; 48 H): Brown
Colony colour (C. freundii [5]; 24 H): —
Colony colour (C. freundii [5]; 48 H): Brown
Colony colour (S. agalactiae [6]; 24 H): —
Colony colour (S. agalactiae [6]; 48 H): —
Colony colour (S. pyogenes [7]; 24 H): Brown
Colony colour (S. pyogenes [7]; 48 H): Brown
